From paper PMC12865225 (Clinical and Translational Science, 2026)

Biological target: T1, OATP1B1 (Homo sapiens, UniProt Q9Y6L6)
T1 construct: expressed in transfected cells; host or cells: HEK293 (recombinant baculovirus-mediated transduction)
T1 sequence (Q9Y6L6 1-691): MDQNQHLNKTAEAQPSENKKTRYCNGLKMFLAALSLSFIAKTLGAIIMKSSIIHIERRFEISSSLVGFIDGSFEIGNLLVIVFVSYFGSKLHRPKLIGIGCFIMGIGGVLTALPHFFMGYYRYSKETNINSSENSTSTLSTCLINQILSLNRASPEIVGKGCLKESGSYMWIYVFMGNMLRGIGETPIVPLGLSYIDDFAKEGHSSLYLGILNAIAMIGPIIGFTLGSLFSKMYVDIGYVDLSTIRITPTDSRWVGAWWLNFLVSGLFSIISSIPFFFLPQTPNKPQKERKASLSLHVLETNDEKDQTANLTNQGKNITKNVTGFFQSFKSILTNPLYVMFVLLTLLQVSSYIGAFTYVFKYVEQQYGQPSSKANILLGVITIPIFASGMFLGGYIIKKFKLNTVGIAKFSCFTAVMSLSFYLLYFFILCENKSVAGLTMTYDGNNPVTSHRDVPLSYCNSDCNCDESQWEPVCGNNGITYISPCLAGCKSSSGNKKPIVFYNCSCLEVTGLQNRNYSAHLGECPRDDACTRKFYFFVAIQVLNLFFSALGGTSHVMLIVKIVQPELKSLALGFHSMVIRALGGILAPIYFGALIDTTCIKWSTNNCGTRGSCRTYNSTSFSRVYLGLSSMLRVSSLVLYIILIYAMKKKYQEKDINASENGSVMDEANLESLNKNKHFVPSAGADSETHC
Assay: Determination of inhibition constant Ki for OATP1B1, rosuvastatin
Type: cell-based
Settings: rosuvastatin 1-80 µM, 30 min preincubation, 2 min; read-out: Ki-value for the competitive inhibition of OATP1B1
Description: were removed and 300 µl of warm TP-buffer was added to each well and incubated for 5 min.
The washing was repeated twice , after which the transport assays were conducted in the presence of 1 µM 2′,7′ -dichlorofluorescein for 5 min. The wells that were pre -incubated with […]
incubated with the vehicle contained three different inhibitor concentrations. After the transport assays, the samples were treated and analyzed similarly as described in the main text and above. The uptake into vehicle control samples w as set to a value of 100% and all the inhibitor samples are presented relative to the vehicle control samples. […]
determined in a single experiment in triplicate samples by using 1 µM, 4 µM and 20 µM […]
µM, 2.5 µM, 10 µM, 20 µM, 40 µM and 80 µM). The assays included a 30 min preincubation step with the inhibitor , and the transport assays were conducted for 2 min . Further details are reported in the methods of the main text. The Ki value was calculated by fitting the com petitive inhibition model to the data with the nonlinear least squares method (nls) in R programming language environment (R version 4.3.1) :
Uptake refers to the rate of uptake in OATP1B1-expressing cells, after subtracting the uptake in control cells , Vmax is the maximum rate of transport, K m is the Michaelis constant, S is the […]
Efflux transport assays in HEK293 membrane vesicles […]

Ki: 3.65 µM
Structure (SMILES): Cc1onc(-c2c(Cl)cccc2Cl)c1C(=O)N[C@@H]1C(=O)N2[C@@H]1SC(C)(C)[C@@H]2C(=O)O [Dicloxacillin]
